Results published in PubChem BioAssay AID1845203 (Molecular Pharmacology Branch, DTP, NCI, 2023).

System: G-401 tumor spheroids, viability % test/control
Assay: Anticancer human tumor G-401 cell line growth inhibition;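 further: spheroids exposed to compound for 7 days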;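 on viability, T/C: 100% = DMSO vehicle-treated spheroids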
Details: spheroids with HUVEC and MSC; for IC50: curve of first compound; for viability, T/C: stronger effect = lower value
Outline: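 Complex tumor spheroids combined malignant cells with endothelial cells and mesenchymal stem cells. DNA-damaging drugs and DNA repair inhibitors were tested alone and in combination, at half-log dilutions down from clinical Cmax (top 10 microM if Cmax unknown), 0.25% DMSO final.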

[1] = second compound 0.003 µM, first compound 0.0316 µM
[2] = second compound 0.003 µM, first compound 0.1 µM
[3] = second compound 0.003 µM, first compound 0.316 µM
[4] = second compound 0.003 µM, first compound 1 µM
[5] = second compound 0.003 µM, first compound 3.16 µM
[6] = second compound 0.003 µM, first compound 10 µM
[7] = second compound 0.00949 µM, first compound 0.0316 µM
[8] = second compound 0.00949 µM, first compound 0.1 µM
[9] = second compound 0.00949 µM, first compound 0.316 µM
[10] = second compound 0.00949 µM, first compound 1 µM
[11] = second compound 0.00949 µM, first compound 3.16 µM
[12] = second compound 0.00949 µM, first compound 10 µM
[13] = second compound 0.03 µM, first compound 0.0316 µM
[14] = second compound 0.03 µM, first compound 0.1 µM
[15] = second compound 0.03 µM, first compound 0.316 µM
[16] = second compound 0.03 µM, first compound 1 µM
[17] = second compound 0.03 µM, first compound 3.16 µM
[18] = second compound 0.03 µM, first compound 10 µM
[19] = second compound 0.0949 µM, first compound 0.0316 µM
[20] = second compound 0.0949 µM, first compound 0.1 µM
[21] = second compound 0.0949 µM, first compound 0.316 µM
[22] = second compound 0.0949 µM, first compound 1 µM
[23] = second compound 0.0949 µM, first compound 3.16 µM
[24] = second compound 0.0949 µM, first compound 10 µM
[25] = second compound 0.3 µM, first compound 0.0316 µM
[26] = second compound 0.3 µM, first compound 0.1 µM
[27] = second compound 0.3 µM, first compound 0.316 µM
[28] = second compound 0.3 µM, first compound 1 µM
[29] = second compound 0.3 µM, first compound 3.16 µM
[30] = second compound 0.3 µM, first compound 10 µM

Q: Which IC50 (second compound 0.003 µM) does the source give for `COc1ccc([C@@H](O)c2cc(-c3ncnc4cc(N5CCOCC5)ccc34)c(F)cc2Cl)nn1` + CC[C@@]1(O)C(=O)OCc2c1cc1n(c2=O)Cc2cc3c(CN(C)C)c(O)ccc3nc2-1 here?
A: Its IC50 is 864 nM.

Q: What about the IC50 (second compound 0.00949 µM) of the same compound?
A: The IC50 was < 31.6 nM.

Q: And the IC50 (second compound 0.03 µM)?
A: Its IC50 is < 31.6 nM.

Q: What about the IC50 (second compound 0.0949 µM) of the same compound?
A: The IC50 was < 31.6 nM.

Q: What about the IC50 (second compound 0.3 µM) of the same compound?
A: The IC50 was < 31.6 nM.

Q: What about the viability, T/C [1] of the same compound?
A: The viability, T/C was 84.4%.

Q: What about the viability, T/C [2] of the same compound?
A: The viability, T/C was 84.2%.

Q: And the viability, T/C [3]?
A: The viability, T/C was 66.6%.

Q: What about the viability, T/C [4] of the same compound?
A: The viability, T/C was 48.3%.

Q: And the viability, T/C [5]?
A: Its viability, T/C is 23.6%.

Q: And the viability, T/C [6]?
A: Its viability, T/C is 9.59%.

Q: And the viability, T/C [7]?
A: Its viability, T/C is 43.5%.

Q: What about the viability, T/C [8] of the same compound?
A: The viability, T/C was 41.3%.

Q: And the viability, T/C [9]?
A: Its viability, T/C is 40.5%.

Q: What about the viability, T/C [10] of the same compound?
A: The viability, T/C was 26.8%.

Q: And the viability, T/C [11]?
A: The viability, T/C was 11.7%.

Q: What about the viability, T/C [12] of the same compound?
A: The viability, T/C was 5.69%.

Q: And the viability, T/C [13]?
A: The viability, T/C was 16.9%.

Q: What about the viability, T/C [14] of the same compound?
A: The viability, T/C was 15.9%.

Q: What about the viability, T/C [15] of the same compound?
A: Its viability, T/C is 11.2%.

Q: And the viability, T/C [16]?
A: Its viability, T/C is 8.51%.

Q: And the viability, T/C [17]?
A: The viability, T/C was 5.48%.

Q: What about the viability, T/C [18] of the same compound?
A: Its viability, T/C is 3.09%.

Q: And the viability, T/C [19]?
A: Its viability, T/C is 7.39%.

Q: What about the viability, T/C [20] of the same compound?
A: Its viability, T/C is 7.68%.

Q: What about the viability, T/C [21] of the same compound?
A: The viability, T/C was 6.35%.

Q: And the viability, T/C [22]?
A: Its viability, T/C is 5.25%.

Q: What about the viability, T/C [23] of the same compound?
A: Its viability, T/C is 3.31%.

Q: And the viability, T/C [24]?
A: The viability, T/C was 1.7%.

Q: What about the viability, T/C [25] of the same compound?
A: The viability, T/C was 4.49%.

Q: What about the viability, T/C [26] of the same compound?
A: The viability, T/C was 4.63%.

Q: And the viability, T/C [27]?
A: The viability, T/C was 3.66%.

Q: What about the viability, T/C [28] of the same compound?
A: Its viability, T/C is 2.59%.

Q: What about the viability, T/C [29] of the same compound?
A: The viability, T/C was 0.94%.

Q: What about the viability, T/C [30] of the same compound?
A: The viability, T/C was 0.33%.

Q: With `Cc1cc(C)c(CNC(=O)c2cc(-c3ccc(CN4CCOCC4)cc3)cc3c2cnn3C2CCCC2)c(=O)[nH]1` + CC[C@@]1(O)C(=O)OCc2c1cc1n(c2=O)Cc2cc3c(CN(C)C)c(O)ccc3nc2-1 as the compound, how does the IC50 (second compound 0.003 µM) read?
A: Its IC50 is 4210 nM.

Q: What about the IC50 (second compound 0.00949 µM) of the same compound?
A: The IC50 was < 31.6 nM.

Q: And the IC50 (second compound 0.03 µM)?
A: The IC50 was < 31.6 nM.

Q: And the IC50 (second compound 0.0949 µM)?
A: The IC50 was < 31.6 nM.

Q: What about the IC50 (second compound 0.3 µM) of the same compound?
A: Its IC50 is < 31.6 nM.

Q: What about the viability, T/C [1] of the same compound?
A: Its viability, T/C is 79.7%.

Q: And the viability, T/C [2]?
A: Its viability, T/C is 81.4%.

Q: And the viability, T/C [3]?
A: Its viability, T/C is 75.1%.

Q: What about the viability, T/C [4] of the same compound?
A: The viability, T/C was 75.1%.

Q: What about the viability, T/C [5] of the same compound?
A: The viability, T/C was 58.2%.

Q: And the viability, T/C [6]?
A: Its viability, T/C is 24.3%.

Q: What about the viability, T/C [7] of the same compound?
A: The viability, T/C was 47.1%.

Q: And the viability, T/C [8]?
A: The viability, T/C was 39.4%.

Q: And the viability, T/C [9]?
A: Its viability, T/C is 32.9%.

Q: And the viability, T/C [10]?
A: The viability, T/C was 33.2%.

Q: And the viability, T/C [11]?
A: Its viability, T/C is 22.1%.

Q: And the viability, T/C [12]?
A: The viability, T/C was 14.2%.

Q: And the viability, T/C [13]?
A: The viability, T/C was 13.4%.

Q: What about the viability, T/C [14] of the same compound?
A: Its viability, T/C is 12.7%.

Q: What about the viability, T/C [15] of the same compound?
A: Its viability, T/C is 11%.

Q: What about the viability, T/C [16] of the same compound?
A: Its viability, T/C is 9.58%.

Q: What about the viability, T/C [17] of the same compound?
A: Its viability, T/C is 7.81%.

Q: What about the viability, T/C [18] of the same compound?
A: The viability, T/C was 7.38%.

Q: And the viability, T/C [19]?
A: The viability, T/C was 7.91%.

Q: What about the viability, T/C [20] of the same compound?
A: Its viability, T/C is 8.43%.

Q: And the viability, T/C [21]?
A: Its viability, T/C is 7.6%.

Q: What about the viability, T/C [22] of the same compound?
A: Its viability, T/C is 6.51%.

Q: What about the viability, T/C [23] of the same compound?
A: The viability, T/C was 5.89%.

Q: What about the viability, T/C [24] of the same compound?
A: The viability, T/C was 5.15%.

Q: What about the viability, T/C [25] of the same compound?
A: The viability, T/C was 5.19%.

Q: And the viability, T/C [26]?
A: Its viability, T/C is 5.25%.

Q: And the viability, T/C [27]?
A: The viability, T/C was 4.23%.

Q: And the viability, T/C [28]?
A: Its viability, T/C is 4.83%.

Q: What about the viability, T/C [29] of the same compound?
A: The viability, T/C was 4.3%.

Q: What about the viability, T/C [30] of the same compound?
A: Its viability, T/C is 4.73%.

Q: Which results are given for `[2H]c1nc(C)nc([2H])c1-c1cc(NC[C@@H](C)c2cccc3c(C(=O)NC)ccnc23)ncn1` + CC[C@@]1(O)C(=O)OCc2c1cc1n(c2=O)Cc2cc3c(CN(C)C)c(O)ccc3nc2-1?
A: IC50 (second compound 0.003 µM): > 10000 nM; IC50 (second compound 0.00949 µM): < 31.6 nM; IC50 (second compound 0.03 µM): < 31.6 nM; IC50 (second compound 0.0949 µM): < 31.6 nM; IC50 (second compound 0.3 µM): < 31.6 nM; viability, T/C [1]: 83.5%; viability, T/C [2]: 94.3%; viability, T/C [3]: 85.3%; viability, T/C [4]: 82.5%; viability, T/C [5]: 75.9%; viability, T/C [6]: 81%; viability, T/C [7]: 45.4%; viability, T/C [8]: 47.3%; viability, T/C [9]: 47.1%; viability, T/C [10]: 40.1%; viability, T/C [11]: 38.9%; viability, T/C [12]: 30.1%; viability, T/C [13]: 14.6%; viability, T/C [14]: 17.2%; viability, T/C [15]: 14%; viability, T/C [16]: 16.9%; viability, T/C [17]: 15.4%; viability, T/C [18]: 12.3%; viability, T/C [19]: 7.88%; viability, T/C [20]: 8.52%; viability, T/C [21]: 8.28%; viability, T/C [22]: 7.66%; viability, T/C [23]: 7.94%; viability, T/C [24]: 6.94%; viability, T/C [25]: 4.71%; viability, T/C [26]: 4.82%; viability, T/C [27]: 5.34%; viability, T/C [28]: 5%; viability, T/C [29]: 4.69%; viability, T/C [30]: 5.48%
